This note sets out measurements from patent US20050197338A1, “Substituted pyrazole urea compounds for the treatment of inflammation” (priority 2003, published 2005).

The target in this test is T1, Rat IKK-2 (Rattus norvegicus, UniProt Q9QY78).
T1 sequence (Q9QY78 1-757): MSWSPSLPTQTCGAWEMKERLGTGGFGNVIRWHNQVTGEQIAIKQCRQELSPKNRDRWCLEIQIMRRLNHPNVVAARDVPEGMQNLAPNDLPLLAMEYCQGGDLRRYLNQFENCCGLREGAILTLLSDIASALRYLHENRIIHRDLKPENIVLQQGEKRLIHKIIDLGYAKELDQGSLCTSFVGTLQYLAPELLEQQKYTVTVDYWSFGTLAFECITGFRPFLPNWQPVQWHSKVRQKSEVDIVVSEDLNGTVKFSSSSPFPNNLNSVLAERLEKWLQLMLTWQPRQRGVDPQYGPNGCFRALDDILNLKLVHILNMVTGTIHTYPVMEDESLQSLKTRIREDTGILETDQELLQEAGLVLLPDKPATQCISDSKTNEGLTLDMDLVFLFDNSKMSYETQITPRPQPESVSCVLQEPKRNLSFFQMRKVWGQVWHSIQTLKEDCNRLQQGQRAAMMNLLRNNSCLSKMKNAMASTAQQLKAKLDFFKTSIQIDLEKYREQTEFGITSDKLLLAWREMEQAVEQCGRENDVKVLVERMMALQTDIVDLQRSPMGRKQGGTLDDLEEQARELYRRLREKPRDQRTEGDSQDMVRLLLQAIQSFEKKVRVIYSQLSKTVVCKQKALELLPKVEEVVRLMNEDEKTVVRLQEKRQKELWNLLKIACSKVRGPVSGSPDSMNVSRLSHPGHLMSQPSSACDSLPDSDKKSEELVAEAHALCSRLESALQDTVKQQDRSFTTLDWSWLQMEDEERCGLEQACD
Briefly: Rat IKK-2 enzyme assay. The test is classed as biochemical. Particulars: read-out: IC50 (μM) rIKK-2.

A word on the IC50: it is the concentration at which inhibition is half-maximal. As to `NC(=O)Nc1cn(-c2ccc(-c3ccc(C(=O)OCc4ccccc4F)c(F)c3)cc2)nc1C(N)=O` [Example 162, 2-fluorobenzyl 4′-{3-(aminocarbonyl)-4-[(aminocarbonyl)amino]-1H-pyrazol-1-yl}-3-fluoro-1,1′-biphenyl-4-carboxylate], the IC50 stood at 13.6 µM. On to `NC(=O)Nc1cn(-c2ccc(I)cc2)nc1C(N)=O` [Example 215, 4-[(aminocarbonyl)amino]-1-(4-iodophenyl)-1H-pyrazole-3-carboxamide], for which the IC50 is 0.091 µM. Take `NC(=O)Nc1cn(-c2cccc(-c3cc(F)ccc3O)c2)nc1C(N)=O` [Example 93, 4-[(aminocarbonyl)amino]-1-(5′-fluoro-2′-hydroxy-1,1′-biphenyl-3-yl)-1H-pyrazole-3-carboxamide]: the 50% inhibitory concentration (IC50) stood at 1.82 µM. To `NC(=O)Nc1cn(-c2ccc(-c3cccc(O)c3)c(Cl)c2)nc1C(N)=O` [Example 7, 4-[(aminocarbonyl)amino]-1-(2-chloro-3′-hydroxy-1,1′-biphenyl-4-yl)-1H-pyrazole-3-carboxamide] belongs 0.121 µM; to `Cc1cc(-c2cccc(O)c2)ccc1-n1cc(NC(N)=O)c(C(N)=O)n1` [Example 5, 4-[(aminocarbonyl)amino]-1-(3′-hydroxy-3-methyl-1,1′-biphenyl-4-yl)-1H-pyrazole-3-carboxamide], 3.71 µM; to `CNC(=O)Nc1cn(-c2cccc(Br)c2)nc1C(N)=O` [Example 15, 1-(3-bromophenyl)-4-{[(methylamino)carbonyl]amino}-1H-pyrazole-3-carboxamide], 4.45 µM. The same measure for `N#CCOc1ccc(F)cc1-c1ccc(-n2cc(NC(N)=O)c(C(N)=O)n2)cc1` [Example 172, 4-[(aminocarbonyl)amino]-1-[2′-(cyanomethoxy)-5′-fluoro-1,1′-biphenyl-4-yl]-1H-pyrazole-3-carboxamide]: 0.033 µM; for `NC(=O)Nc1cn(-c2ccc(S(=O)(=O)c3ccc(F)cc3)cc2)nc1C(N)=O` [Example 204, 1-(1-(4-(4-fluorophenylsulfonyl)phenyl)-3-carbamoyl-1H-pyrazol-4-yl)urea]: 0.023 µM.

On to `NC(=O)Nc1cn(-c2ccc(Br)cc2)nc1C(N)=O` [Example 19, 1-(1-(4-bromophenyl)-3-carbamoyl-1H-pyrazol-4-yl)urea], for which the IC50 amounted to 0.352 µM. Turning to `NC(=O)Nc1cn(-c2ccc(-c3ccccc3)cc2)nc1C(N)=O` [Example 101, 4-[(aminocarbonyl)amino]-1-(1,1′-biphenyl-4-yl)-1H-pyrazole-3-carboxamide], the IC50 is 1.89 µM. The same measure for `Cc1cc(-n2cc(NC(N)=O)c(C(N)=O)n2)ccc1I` [Example 8, 1-(4-iodo-3-methyl-phenyl)-4-ureido-1H-pyrazole-3-carboxylic acid amide]: 0.089 µM; for `CCOc1cc(-n2cc(NC(N)=O)c(C(N)=O)n2)ccc1Br` [Example 3, 4-[(aminocarbonyl)amino]-1-(4-bromo-3-ethoxyphenyl)-1H-pyrazole-3-carboxamide]: 0.787 µM; for `NC(=O)Nc1cn(-c2ccc(-c3ccc(C(=O)OCc4cccc(F)c4)c(F)c3)cc2)nc1C(N)=O` [Example 163, 3-fluorobenzyl 4′-{3-(aminocarbonyl)-4-[(aminocarbonyl)amino]-1H-pyrazol-1-yl}-3-fluoro-1,1′-biphenyl-4-carboxylate]: 17.4 µM.

Regarding `NC(=O)Nc1cn(-c2ccc(Br)c(F)c2)nc1C(N)=O` [Example 225, 4-[(aminocarbonyl)amino]-1-(4-bromo-3-fluorophenyl)-1H-pyrazole-3-carboxamide], the IC50 turned out to be 0.292 µM. To `CN(C)CCN(C)C(=O)c1ccc(-c2ccc(-n3cc(NC(N)=O)c(C(N)=O)n3)cc2)cc1F` [Example 160, 4-[(aminocarbonyl)amino]-1-(4′-{[[2-(dimethylamino)ethyl](methyl)amino]carbonyl}-3′-fluoro-1,1′-biphenyl-4-yl)-1H-pyrazole-3-carboxamide] belongs 7.19 µM; to `COc1ccc(-n2cc(NC(N)=O)c(C(N)=O)n2)cc1Cl` [Example 209, 4-[(Aminocarbonyl)amino]-1-(3-chloro-4-methoxyphenyl)-1H-pyrazole-3-carboxamide], 1.08 µM; to `CNC(=O)Nc1cn(-c2ccc(Br)cc2)nc1C(N)=O` [Example 16, 1-(4-bromophenyl)-4-{[(methylamino)carbonyl]amino}-1H-pyrazole-3-carboxamide], 2.83 µM. The same measure for `N#Cc1ccc(-c2ccc(-n3cc(NC(N)=O)c(C(N)=O)n3)cc2)cc1` [Example 100, 4-[(aminocarbonyl)amino]-1-(4′-cyano-1,1′-biphenyl-4-yl)-1H-pyrazole-3-carboxamide]: 0.171 µM. Turning to `N#CCCc1cccc(-c2ccc(-n3cc(NC(N)=O)c(C(N)=O)n3)cc2)c1` [Example 186, 4-[(aminocarbonyl)amino]-1-[3′-(2-cyanoethyl)-1,1′-biphenyl-4-yl]-1H-pyrazole-3-carboxamide], the IC50 was determined as 0.475 µM. To `NC(=O)Nc1cn(-c2ccc(-c3ccc(C(=O)O)c(F)c3)cc2)nc1C(N)=O` [Example 97, 4′-{3-(aminocarbonyl)-4-[(aminocarbonyl)amino]-1H-pyrazol-1-yl}-3-fluoro-1,1′-biphenyl-4-carboxylic acid] belongs 0.18 µM; to `NC(=O)Nc1cn(-c2ccc(S(=O)(=O)C3CCCCC3)cc2)nc1C(N)=O` [Example 192, 1-(3-carbamoyl-1-(4-(cyclohexylsulfonyl)phenyl)-1H-pyrazol-4-yl)urea], 0.297 µM; to `NC(=O)Nc1cn(-c2ccc(-c3cc4ccccc4[nH]3)cc2)nc1C(N)=O` [Example 141, 4-[(aminocarbonyl)amino]-1-[4-(1H-indol-2-yl)phenyl]-1H-pyrazole-3-carboxamide], 4 µM. In the case of `NC(=O)Nc1cn(-c2ccc(-c3ccc(-c4nnn[nH]4)cc3)cc2)nc1C(N)=O` [Example 187, 4-[(aminocarbonyl)amino]-1-[4′-(1H-tetrazol-5-yl)-1,1′-biphenyl-4-yl]-1H-pyrazole-3-carboxamide], the IC50 was found to be 0.441 µM. The same measure for `NC(=O)Nc1cn(-c2ccc(-c3ccc(C(=O)OCc4ccc(F)cc4)c(F)c3)cc2)nc1C(N)=O` [Example 164, 4-fluorobenzyl 4′-{3-(aminocarbonyl)-4-[(aminocarbonyl)amino]-1H-pyrazol-1-yl}-3-fluoro-1,1′-biphenyl-4-carboxylate]: 7.27 µM; for `N#CCOc1ccc(F)cc1-c1cccc(-n2cc(NC(N)=O)c(C(N)=O)n2)c1` [Example 94, 4-[(aminocarbonyl)amino]-1-[2′-(cyanomethoxy)-5′-fluoro-1,1′-biphenyl-3-yl]-1H-pyrazole-3-carboxamide]: 0.22 µM. The same measure for `NC(=O)Nc1cn(-c2cccc(-c3ccc(F)cc3O)c2)nc1C(N)=O` [Example 92, 4-[(aminocarbonyl)amino]-1-(4′-fluoro-2′-hydroxy-1,1′-biphenyl-3-yl)-1H-pyrazole-3-carboxamide]: 2.66 µM; for `NC(=O)Nc1cn(-c2ccc(Sc3ccccn3)cc2)nc1C(N)=O` [Example 205, 1-(3-carbamoyl-1-(4-(pyridin-2-ylthio)phenyl)-1H-pyrazol-4-yl)urea]: 0.258 µM; for `NC(=O)Nc1cn(-c2ccc(-c3cc(F)ccc3O)cc2)nc1C(N)=O` [Example 99, 4-[(aminocarbonyl)amino]-1-(5′-fluoro-2′-hydroxy-1,1′-biphenyl-4-yl)-1H-pyrazole-3-carboxamide]: 0.555 µM. `NC(=O)Nc1cn(-c2ccc(Br)c(C(F)(F)F)c2)nc1C(N)=O` [Example 1, 4-[(aminocarbonyl)amino]-1-[4-bromo-3-(trifluoromethyl)phenyl]-1H-pyrazole-3-carboxamide]: the IC50 turned out to be 0.108 µM. The same measure for `Cc1cc(I)ccc1-n1cc(NC(N)=O)c(C(N)=O)n1` [Example 4, 1-(4-iodo-2-methyl-phenyl)-4-ureido-1H-pyrazole-3-carboxylic acid amide]: 1.93 µM; for `CC(C)(C)OC(=O)COc1cccc(-c2ccc(-n3cc(NC(N)=O)c(C(N)=O)n3)cc2)c1` [Example 174, tert-butyl [(4′-{3-(aminocarbonyl)-4-[(aminocarbonyl)amino]-1H-pyrazol-1-yl}-1,1′-biphenyl-3-yl)oxy]acetate]: 2.49 µM; for `NC(=O)Nc1cn(-c2ccc(S(=O)(=O)c3ccccc3F)cc2)nc1C(N)=O` [Example 194, 1-(1-(4-(2-fluorophenylsulfonyl)phenyl)-3-carbamoyl-1H-pyrazol-4-yl)urea]: 0.173 µM. To `NC(=O)Nc1cn(-c2ccc(-c3ccc(F)cc3O)cc2)nc1C(N)=O` [Example 98, 4-[(aminocarbonyl)amino]-1-(4′-fluoro-2′-hydroxy-1,1′-biphenyl-4-yl)-1H-pyrazole-3-carboxamide] belongs 0.668 µM; to `NC(=O)COc1cccc(-c2ccc(-n3cc(NC(N)=O)c(C(N)=O)n3)cc2)c1` [Example 175, 4-[(aminocarbonyl)amino]-1-[3′-(2-amino-2-oxoethoxy)-1,1′-biphenyl-4-yl]-1H-pyrazole-3-carboxamide], 0.181 µM.
